This is an account of results in patent publication US20250129104A1, “7H-PYRROLO[2,3-D]PYRIMIDINES AND PREPARATION AND USES THEREOF” (BioSplice Therapeutics, Inc., priority 2021, published 2025).

As usually defined, the EC50 is the concentration that produces a half-maximal response.

The subject of assay [1] is Tau phosphorylation at Thr212 (pThr212). In words: tau phosphorylation assay: phosphoTau (Thr212) AlphaLISA in HEK293T cells transfected with DYRK1A and MAPT. Format: cell-based. As to conditions: HEK-293T; HEK293T cells transfected with human DYRK1A and MAPT; 18-24 h compound treatment; read-out: pTau (Thr212) EC50. Here is the method:
Representative compounds were screened using the assay procedure for tau phosphorylation activity described below.
HEK293T cells (ATCC, CRL3216) cultured in DMEM (Thermo Fisher Scientific, 10566024) supplemented with 10% FBS (Corning, 35-011-CV) and Penicillin/Streptomycin (Thermo Fisher Scientific, 15140163) were seeded in a 75 cm^2 flask at 8.1×10^6 cells/flask. The HEK293T cells were then transiently transfected with 5 μg DYRK1A (NM_001396) human untagged clone (OriGene, SC314641) and 2.5 μg MAPT (441 a.a. Tau gene) (NM_005910) human untagged clone (OriGene, TP313312) using Lipofectamine 3000 (Thermo Fisher Scientific, L30000015) and incubated for 20-30 hours in a humidified incubator at 37° C. and 5% CO2. Post-incubation, HEK293T cells transfected with the DYRK1A and MAPT expression vectors were harvested and seeded in BioCoat poly-D lysine coated 96-well plates (Corning, 354461) at 3×10^4 cells/well.
The above synthesized compounds were screened using the cell assay procedure to assess decreased Tau phosphorylation at Thr212 (pThr212) described below.
Each compound was dissolved in DMSO (Sigma-Aldrich, D8418-100 mL) as a 10 mM stock. 10 mM stocks were serially diluted 1:3, 10-point dose-response curve and added to the cells with a final concentration ranging from 20 μM to 1.1 nM. Cell were treated with compounds in duplicate and incubated for 18-24 hours in a humidified incubator at 37° C. and 5% CO2.
Following the overnight compound treatment, cells were lysed with 1× Alpha Surefire Ultra Lysis Buffer (Perkin Elmer, ALSU-LB-100ML) complemented with 1× Halt Phosphatase Inhibitor Cocktail (Thermo Fisher Scientific, 78427) and 1× Halt Protease Inhibitor Cocktail (Thermo Fisher Scientific, 78438). Lysates were spun down at 12,000 g for 10 min to remove any cellular debris and 5 μL of lysates were dispensed into a 384-well Opti-Plate (Perkin Elmer, 6007290) for the measurement of Tau phosphorylation in the phosphoTau (Thr212) AlphaLISA assay. Donor antibody, biotinylated HT7Tau (Thermo Fisher Scientific, MN1000B), and acceptor antibody, pThr212Tau (Thermo Fisher Scientific, 44740G) were both added to the cell lysates at a final concentration of 3 nM and incubated for 1 hour at room temperature. Following incubation of the lysates with the donor and acceptor antibodies, anti-rabbit IgG (Fc specific) AlphaLISA acceptor beads (Perkin Elmer, AL104C) were added at a 10 μg/mL final concentration and incubated for 1 hour at room temperature protected from light. Lastly, AlphaScreen streptavidin donor beads (PerkinElmer, 6760002) were added at 40 μg/mL final concentration and incubated for 1 hour at room temperature protected from light. Plates were read at […], and Em=615 nm on the EnVision Multilabel Plate Reader (Perkin Elmer). PhosphoTau (Thr212) AlphaLISA signal was used to plot, draw the curve fitting, and determine each compound's EC50 in Prism (GraphPad).
On the technique in general: Bead proximity is the source of the signal in Alpha formats.

For assay [2], the target named is recombinant DYRK1A kinase (Homo sapiens (Human), UniProt Q13627). In words: DYRK1A kinase assay (Ser/Thr 18 peptide Z-lyte FRET assay). Format: biochemical. As to conditions: DYRK1A kinase activity; 15 μM ATP, 1 h room temperature; method text calls the value IC50. Put shortly:
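Recombinant human DYRK1A (0.25 μg/mL) with 15 μM ATP and 4 μM Ser/Thr 18 peptide, 1 h at room temperature with compound (11-point, 1:3, 10 μM top, duplicate). Z-lyte development 1 h, then coumarin/fluorescein FRET emission ratio converted to % phosphorylation; IC50 by non-linear regression.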

For `Cc1nc2c(F)cc(-c3c[nH]c4nc(C5CCC5)ncc34)cc2n1C(C)C` [Compound 500, 2-Cyclobutyl-5-(4-fluoro-1-isopropyl-2-methyl-1H-benzo[d]imidazol-6-yl)-7H-pyrrolo[2,3-d]pyrimidine], the EC50 came out at 338 nM in assay [1] and 19.8 nM in assay [2].

As for `Cc1nc2c(F)cc(-c3c[nH]c4nc(NCC(C)(C)C)ncc34)cc2n1C(C)C` [Compound 507, 5-(4-Fluoro-1-isopropyl-2-methyl-1H-benzo[d]imidazol-6-yl)-N-neopentyl-7H-pyrrolo[2,3-d]pyrimidin-2-amine], the EC50 in assay [1] is 37 nM; in assay [2], 7.2 nM.

For the molecule `Cc1nc2c(F)cc(-c3c[nH]c4nc(C5CC5)ncc34)cc2n1C1CCN(C)CC1` [Compound 544, 2-Cyclopropyl-5-(4-fluoro-2-methyl-1-(1-methylpiperidin-4-yl)-1H-benzo[d]imidazol-6-yl)-7H-pyrrolo[2,3-d]pyrimidine], the EC50 in assay [1] came out at 408 nM; in assay [2] it was 12.2 nM.

With `Cc1nc2ncc(-c3c[nH]c4nc(C5CCC5)ncc34)cc2n1C(C)C` [Compound 588, 6-(2-Cyclobutyl-7H-pyrrolo[2,3-d]pyrimidin-5-yl)-1-isopropyl-2-methyl-1H-imidazo[4,5-b]pyridine], the half-maximal effective concentration (EC50) came out at 1470 nM in assay [1] and 25 nM in assay [2].

For the molecule `Cc1nc2ccc(-c3c[nH]c4nc(NCC(C)(C)F)ncc34)nc2n1C` [Compound 629, 5-(2,3-Dimethyl-3H-imidazo[4,5-b]pyridin-5-yl)-N-(2-fluoro-2-methylpropyl)-7H-pyrrolo[2,3-d]pyrimidin-2-amine], the EC50 amounted to 28 nM in assay [1] and 531 nM in assay [2].

As to `Cc1nc2ccc(-c3c[nH]c4nc(N[C@H](C)C(F)(F)F)ncc34)nc2n1CC(F)F` [Compound 646, (R)-5-(3-(2,2-Difluoroethyl)-2-methyl-3H-imidazo[4,5-b]pyridin-5-yl)-N-(1,1,1-trifluoropropan-2-yl)-7H-pyrrolo[2,3-d]pyrimidin-2-amine], the values for the EC50 in assay [1] and in assay [2] were 6 nM and 5.6 nM, respectively.

Take `Cc1nc2ccc(-c3c[nH]c4nc(CC(C)C)ncc34)nc2n1C(C)C` [Compound 674, 5-(2-Isobutyl-7H-pyrrolo[2,3-d]pyrimidin-5-yl)-3-isopropyl-2-methyl-3H-imidazo[4,5-b]pyridine]: the EC50 in assay [1] came to 72 nM; in assay [2] it was 5.1 nM.

With `CC(C)Nc1ncc2c(-c3ccc4ncnn4c3)c[nH]c2n1` [Compound 726, 5-([1,2,4]Triazolo[1,5-a]pyridin-6-yl)-N-isopropyl-7H-pyrrolo[2,3-d]pyrimidin-2-amine], the EC50 in assay [1] turned out to be 815 nM; in assay [2], 22.4 nM.

Turning to `CC(C)CNc1ncc2c(-c3ccc4ncnn4c3)c[nH]c2n1` [Compound 727, 5-([1,2,4]Triazolo[1,5-a]pyridin-6-yl)-N-isobutyl-7H-pyrrolo[2,3-d]pyrimidin-2-amine], the EC50 in assay [1] came out at 78 nM; in assay [2] it was 6.9 nM.

Regarding `FC(F)CNc1ncc2c(-c3ccc4ncnn4c3)c[nH]c2n1` [Compound 730, 5-([1,2,4]Triazolo[1,5-a]pyridin-6-yl)-N-(2,2-difluoroethyl)-7H-pyrrolo[2,3-d]pyrimidin-2-amine], the EC50 in assay [1] came to 504 nM; in assay [2], 33.6 nM.

`CC(C)(F)CNc1ncc2c(-c3ccc4ncnn4c3)c[nH]c2n1` [Compound 731, 5-([1,2,4]Triazolo[1,5-a]pyridin-6-yl)-N-(2-fluoro-2-methylpropyl)-7H-pyrrolo[2,3-d]pyrimidin-2-amine]: the EC50 in assay [1] was 199 nM; in assay [2] it was 8.6 nM.

Consider `CC(F)(F)CNc1ncc2c(-c3ccc4ncnn4c3)c[nH]c2n1` [Compound 732, 5-([1,2,4]Triazolo[1,5-a]pyridin-6-yl)-N-(2,2-difluoropropyl)-7H-pyrrolo [2,3-d]pyrimidin-2-amine], for which the EC50 in assay [1] was 191 nM; in assay [2], 11.7 nM.

As to `C[C@@H](Nc1ncc2c(-c3ccc4ncnn4c3)c[nH]c2n1)C(F)(F)F` [Compound 734, (R)-5-([1,2,4]Triazolo[1,5-a]pyridin-6-yl)-N-(1,1,1-trifluoropropan-2-yl)-7H-pyrrolo[2,3-d]pyrimidin-2-amine], the results for the EC50 in assay [1] and in assay [2] were 335 nM and 18.7 nM, respectively.

For `FC1(CNc2ncc3c(-c4ccc5ncnn5c4)c[nH]c3n2)CC1` [Compound 739, 5-([1,2,4]Triazolo[1,5-a]pyridin-6-yl)-N-((1-fluorocyclopropyl)methyl)-7H-pyrrolo[2,3-d]pyrimidin-2-amine], the results for the half-maximal effective concentration (EC50) in assay [1] and in assay [2] were 265 nM and 32.6 nM, respectively.

Take `C[C@@H](Nc1ncc2c(-c3ccc4ncnn4c3)c[nH]c2n1)C1CC1` [Compound 740, (R)-5-([1,2,4]Triazolo[1,5-a]pyridin-6-yl)-N-(1-cyclopropylethyl)-7H-pyrrolo [2,3-d]pyrimidin-2-amine]: the values for the EC50 in assay [1] and in assay [2] were 226 nM and 22 nM, respectively.

For `FC1(F)CC(Nc2ncc3c(-c4ccc5ncnn5c4)c[nH]c3n2)C1` [Compound 744, 5-([1,2,4]Triazolo[1,5-a]pyridin-6-yl)-N-(3,3-difluorocyclobutyl)-7H-pyrrolo [2,3-d]pyrimidin-2-amine], the values for the concentration giving a half-maximal response (EC50) in assay [1] and in assay [2] were 213 nM and 6.5 nM, respectively.

Turning to `FC1(CNc2ncc3c(-c4ccc5ncnn5c4)c[nH]c3n2)CCC1` [Compound 745, 5-([1,2,4]Triazolo[1,5-a]pyridin-6-yl)-N-((1-fluorocyclobutyl)methyl)-7H-pyrrolo[2,3-d]pyrimidin-2-amine], the values for the EC50 in assay [1] and in assay [2] were 90 nM and 5.1 nM, respectively.

With `FC1(F)CCC(Nc2ncc3c(-c4ccc5ncnn5c4)c[nH]c3n2)CC1` [Compound 746, 5-([1,2,4]Triazolo[1,5-a]pyridin-6-yl)-N-(4,4-difluorocyclohexyl)-7H-pyrrolo [2,3-d]pyrimidin-2-amine], the EC50 in assay [1] came to 521 nM; in assay [2] it was 29.2 nM.

On to `FC1(CNc2ncc3c(-c4ccc5ncnn5c4)c[nH]c3n2)CCCCC1` [Compound 748, 5-([1,2,4]Triazolo[1,5-a]pyridin-6-yl)-N-((1-fluorocyclohexyl)methyl)-7H-pyrrolo[2,3-d]pyrimidin-2-amine], for which the EC50 in assay [1] is 174 nM; in assay [2], 20 nM.

Regarding `FC1(F)CCC(CNc2ncc3c(-c4ccc5ncnn5c4)c[nH]c3n2)CC1` [Compound 749, 5-([1,2,4]Triazolo[1,5-a]pyridin-6-yl)-N-((4,4-difluorocyclohexyl)methyl)-7H-pyrrolo[2,3-d]pyrimidin-2-amine], the EC50 in assay [1] came to 80 nM; in assay [2], 7 nM.

Take `CN1CCC(Nc2ncc3c(-c4ccc5ncnn5c4)c[nH]c3n2)CC1` [Compound 750, 5-([1,2,4]Triazolo[1,5-a]pyridin-6-yl)-N-(1-methylpiperidin-4-yl)-7H-pyrrolo [2,3-d]pyrimidin-2-amine]: the EC50 in assay [1] stood at 67 nM; in assay [2], 26.9 nM.

As to `CC(C)CNc1ncc2c(-c3cc(F)c4ncnn4c3)c[nH]c2n1` [Compound 771, 5-(8-Fluoro-[1,2,4]triazolo[1,5-a]pyridin-6-yl)-N-isobutyl-7H-pyrrolo[2,3-d]pyrimidin-2-amine], the figures for the EC50 in assay [1] and in assay [2] were 470 nM and 18 nM, respectively.

Consider `CC(C)(F)CNc1ncc2c(-c3ccn4ncnc4c3)c[nH]c2n1` [Compound 805, 5-([1,2,4]Triazolo[1,5-a]pyridin-7-yl)-N-(2-fluoro-2-methylpropyl)-7H-pyrrolo[2,3-d]pyrimidin-2-amine], for which the concentration for a half-maximal effect (EC50) in assay [1] was determined as 439 nM; in assay [2], 11.3 nM.
